Experiments:
Plasmopara viticola = experiment: Antisporulant activity against vine downy mildew (PVA); type: in vivo; settings: vine leaves, antisporulant foliar spray, 600 ppm, 750 l/ha
Summary of the method: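 Cabernet Sauvignon vines (~8 cm) inoculated on lower leaf surfaces with 5×10^4 zoosporangia/ml, held 24 h at 21° C high humidity then 24 h glasshouse. Infected leaves sprayed underside with 600 ppm compound in 1:1 water/acetone, 0.04% Tween 20, 750 l/ha; 96 h glasshouse, 24 h humidity. Sporulating leaf area rated versus control.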

Alternaria solani = experiment: Activity against tomato early blight (AS); type: in vivo; settings: Table VI; tomato seedlings, contact prophylactic foliar spray, 4 days
Summary of the method: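 Foliar contact prophylactic spray on tomato seedlings (cv Outdoor Girl, second true leaf expanded) in acetone/water 50:50 with 0.04% Tween 20; 24 h at 20° C, 40% R.H., then inoculation with 10^4 spores/ml A. solani conidia. Kept moist at 21° C; lesion cover rated 4 days post-inoculation against untreated or diluent-sprayed controls.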

Botrytis cinerea = experiment: Direct protectant activity against broad bean grey mould (BCB); type: in vivo; settings: direct protectant foliar spray, 600 ppm, 4 days
Summary of the method: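 Broad bean plants (cv The Sutton, two leaf pairs) sprayed on upper leaf surfaces at 600 ppm, then inoculated 24 h later with 10^6 conidia/ml. Kept 4 days at 22 °C, high humidity; disease control rated from % leaf area with lesions against untreated or diluent controls.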

Leptosphaeria nodorum = experiment: Activity against wheat leafspot (LN); type: in vivo; settings: direct therapeutic foliar spray, 600 ppm, 6-8 days
Summary of the method: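 Wheat cv Norman at single-leaf stage spray-inoculated with 1.5×10^6 conidia/ml, held 24 h at high humidity, then sprayed therapeutically with test compound at 600 ppm. Kept 6-8 days at 22° C, 70% humidity; lesion density per leaf rated against untreated or diluent-sprayed controls.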

[1] = tested on: Erysiphe graminis f.sp. hordei; experiment: Activity against barley powdery mildew, direct therapeutic (EGT); type: in vivo; settings: direct therapeutic foliar spray, 600 ppm, up to 7 days
Summary of the method: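 Barley seedlings (cv. Golden Promise, single-leaf stage) were dusted with mildew conidia one day before a therapeutic foliar spray of 600 ppm compound. Plants were kept at 18 °C and 40% humidity for up to 7 days, and sporulating leaf area was rated against untreated or diluent-sprayed controls.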

[2] = tested on: Erysiphe graminis f.sp. hordei; experiment: Direct protectant activity against barley powdery mildew (EGP); type: in vivo; settings: direct protectant foliar spray, 8 days
Summary of the method: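 Barley seedlings (cv Golden Promise, single-leaf stage) were foliar-sprayed, held 24 h at 18 °C/40% RH, then dusted with mildew conidia. After 8 days at 18 °C/40% RH, sporulating leaf area was scored as a rating against untreated or diluent-sprayed controls.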

Phytophthora infestans = type: in vivo; settings: tomato, direct protectant foliar spray
[3] = tested on: Pseudocercosporella herpotrichoides; experiment: Activity against wheat eyespot in-vitro (PHI); type: cell-based; settings: 10 ppm, 10 days, 20° C., mycelial growth
Summary of the method: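 P. herpotrichoides mycelial fragments (5×10^4/ml) grown in half-strength PDB with compound at 10 ppm final, added from acetone. Incubated 10 days at 20 °C; mycelial growth rated against untreated or diluent controls.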

Rhizoctonia solani = experiment: Activity against Rhizoctonia in-vitro (RSI); type: cell-based; settings: 10 ppm, 10 days, 20° C., mycelial growth
Summary of the method: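 R. solani mycelial fragments (5×10^4/ml) in half-strength Potato Dextrose Broth with compound added from acetone to 10 ppm final. Mycelial growth assessed after 10 days at 20° C, rated against untreated or diluent control.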

Venturia inaequalis = experiment: Activity against apple scab in-vitro (VII); type: cell-based; settings: 10 ppm, 10 days, 20° C., mycelial growth
Summary of the method: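 Compound in acetone was tested at 10 ppm final in half-strength Potato Dextrose Broth inoculated with V. inaequalis mycelial fragments and spores at 5×10^4 propagules/ml. After 10 days at 20° C, mycelial growth was rated against untreated or diluent controls.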

Pyricularia oryzae = type: in vivo; settings: rice seedlings, direct therapeutic foliar spray, 600 ppm, 4-5 days

CCCC(CCC)NC1COC2(CCC(C(C)(C)C)CC2)C1 (stereo not drawn) [Compound 99, 3-Hept-4-ylamino-8-t-butyl-1-oxaspiro(4,5)-decane]
0 (less than 50% disease control): disease control rating PVA (Plasmopara viticola) | disease control rating AS (Alternaria solani) | disease control rating BCB (Botrytis cinerea) | disease control rating LN (Leptosphaeria nodorum) | disease control rating PHI [3] | disease control rating RSI (Rhizoctonia solani) | disease control rating PO (Pyricularia oryzae)
2 (greater than 80% disease control): disease control rating EGT [1] | disease control rating EGP [2] | disease control rating PIP (Phytophthora infestans) | disease control rating VII (Venturia inaequalis)

CC1CCCN(C2COC3(CCC(C(C)(C)C)CC3)C2)C1 (stereo not drawn) [Compound 18]
2 (greater than 80% disease control): disease control rating EGT [1] | disease control rating EGP [2]
1 (about 50-80% disease control): disease control rating LN (Leptosphaeria nodorum) | disease control rating VII (Venturia inaequalis)
0 (less than 50% disease control): disease control rating PVA (Plasmopara viticola) | disease control rating AS (Alternaria solani) | disease control rating BCB (Botrytis cinerea) | disease control rating PIP (Phytophthora infestans) | disease control rating PHI [3] | disease control rating RSI (Rhizoctonia solani) | disease control rating PO (Pyricularia oryzae)

CC(C)(C)C1CCC2(CC1)CC(NCc1ccc(F)cc1)CO2 (stereo not drawn) [Compound 30]
0 (less than 50% disease control): disease control rating PVA (Plasmopara viticola) | disease control rating AS (Alternaria solani) | disease control rating BCB (Botrytis cinerea) | disease control rating LN (Leptosphaeria nodorum) | disease control rating PIP (Phytophthora infestans) | disease control rating PHI [3] | disease control rating RSI (Rhizoctonia solani) | disease control rating PO (Pyricularia oryzae)
2 (greater than 80% disease control): disease control rating EGT [1] | disease control rating EGP [2] | disease control rating VII (Venturia inaequalis)

CCCCCCCCNC1COC2(CCC(C(C)(C)C)CC2)C1 (stereo not drawn) [Compound 7]
1 (about 50-80% disease control): disease control rating BCB (Botrytis cinerea)
0 (less than 50% disease control): disease control rating PVA (Plasmopara viticola) | disease control rating AS (Alternaria solani) | disease control rating LN (Leptosphaeria nodorum) | disease control rating PIP (Phytophthora infestans) | disease control rating PO (Pyricularia oryzae)
2 (greater than 80% disease control): disease control rating EGT [1] | disease control rating EGP [2] | disease control rating PHI [3] | disease control rating RSI (Rhizoctonia solani) | disease control rating VII (Venturia inaequalis)

CN(CC1CCCCC1)C1COC2(CCC(C(C)(C)C)CC2)C1 (stereo not drawn) [Compound 91]
2 (greater than 80% disease control): disease control rating EGT [1] | disease control rating EGP [2] | disease control rating PIP (Phytophthora infestans) | disease control rating PHI [3]
1 (about 50-80% disease control): disease control rating BCB (Botrytis cinerea) | disease control rating LN (Leptosphaeria nodorum)
0 (less than 50% disease control): disease control rating PVA (Plasmopara viticola) | disease control rating AS (Alternaria solani) | disease control rating RSI (Rhizoctonia solani) | disease control rating VII (Venturia inaequalis) | disease control rating PO (Pyricularia oryzae)

CC(C)N(CCC1CCCCC1)C1COC2(CCC(C(C)(C)C)CC2)C1 (stereo not drawn) [Compound 122]
2 (greater than 80% disease control): disease control rating EGT [1] | disease control rating EGP [2] | disease control rating PO (Pyricularia oryzae)
0 (less than 50% disease control): disease control rating PVA (Plasmopara viticola) | disease control rating AS (Alternaria solani) | disease control rating BCB (Botrytis cinerea) | disease control rating LN (Leptosphaeria nodorum) | disease control rating PIP (Phytophthora infestans) | disease control rating PHI [3] | disease control rating RSI (Rhizoctonia solani) | disease control rating VII (Venturia inaequalis)

CC(C)(C)C1CCC2(CC1)CC(CN)CO2 (stereo not drawn) [Compound 181, 8-t-Butyl-3-aminomethyl-1-oxaspiro(4,5)decane]
2 (greater than 80% disease control): disease control rating EGT [1] | disease control rating EGP [2] | disease control rating PIP (Phytophthora infestans)
0 (less than 50% disease control): disease control rating PVA (Plasmopara viticola) | disease control rating AS (Alternaria solani) | disease control rating BCB (Botrytis cinerea) | disease control rating LN (Leptosphaeria nodorum) | disease control rating PHI [3] | disease control rating RSI (Rhizoctonia solani) | disease control rating VII (Venturia inaequalis) | disease control rating PO (Pyricularia oryzae)

CCCCCN(C(C)C)C1COC2(CCC(C(C)(C)C)CC2)C1 (stereo not drawn) [Compound 76]
0 (less than 50% disease control): disease control rating PVA (Plasmopara viticola) | disease control rating AS (Alternaria solani) | disease control rating BCB (Botrytis cinerea) | disease control rating LN (Leptosphaeria nodorum) | disease control rating PIP (Phytophthora infestans) | disease control rating PHI [3] | disease control rating RSI (Rhizoctonia solani) | disease control rating VII (Venturia inaequalis) | disease control rating PO (Pyricularia oryzae)
2 (greater than 80% disease control): disease control rating EGT [1] | disease control rating EGP [2]

CC1CN(C2COC3(CCCCC3)C2)CC(C)O1 (stereo not drawn) [Compound 36]
2 (greater than 80% disease control): disease control rating EGT [1] | disease control rating EGP [2]
0 (less than 50% disease control): disease control rating PVA (Plasmopara viticola) | disease control rating AS (Alternaria solani) | disease control rating BCB (Botrytis cinerea) | disease control rating LN (Leptosphaeria nodorum) | disease control rating PIP (Phytophthora infestans) | disease control rating PHI [3] | disease control rating RSI (Rhizoctonia solani) | disease control rating PO (Pyricularia oryzae)
1 (about 50-80% disease control): disease control rating VII (Venturia inaequalis)

Reference: US5591741A, “Fungicidal spiroheterocyclic derivatives” (American Cyanamid Company, priority 1993, dated 1997)
